Our source for the ECHCG control and LEFCH control values is patent US20130137573A1, “HERBICIDAL COMPOSITIONS COMPRISING, AND METHODS OF USE OF, HERBICIDALLY ACTIVE PYRANDIONES” (priority 2009, published 2013).

For assay [1], the system named is Echinochloa crus-galli (ECHCG). Briefly: Biological Example 1 (Test 125): visual herbicidal damage to flooded ECHCG. Type of assay: in vivo. Particulars: 200 g/ha fenoxasulfone applied alone, 14 DAA. On the procedure:
(§1) Rice seeds, variety IR-64 (an indica type of rice), were sown in seed trays. After 7 days the resulting plants were transplanted as 3 groups of 2 plants, into pots containing a standard sandy loam soil saturated with water replicating swampy conditions. These were grown on for a further 9 days in a glasshouse bay (30/20° C. day/night; 18/6 hours light/dark; 75% humidity). Leptochloa chinensis (LEFCH) and Echinochloa crus-galli (ECHCG) were sown as 2 separate groups of approx 10-20 seeds into pots 13 days prior to application of the test substances, in the same glasshouse conditions as the rice. Therefore, each pot of weeds contained a group of LEFCH and a separate group of ECHCG. All pots of rice and all pots of weeds were flooded to 2-3 cm water depth the day prior to application of the test substances. Growth stages at time of application were as follows: Rice: from 2 leaves on the main stem up to tillering; ECHCG: from 2 leaves on the main stem up to tillering; LEFCH: 2-3 leaves.
Test solutions were prepared by mixing the appropriate aliquots of the test substances in deionised water to give the desired treatment concentration. Most of the test substances were used as formulated products. Specifically, compound A-13 was applied as the EC050 formulation disclosed in Formulation Example 1 herein (EC=emulsifiable concentrate). Reference compound A-4 was applied as the EC050 formulation disclosed in Reference Formulation Example 2 herein. Pyroxasulfone (a comparator co-herbicide) was applied as the SC050 formulation disclosed in Reference Formulation Example 6 herein (SC=Suspension concentrate). Imazosulfuron (a comparator co-herbicide) was applied as a GR0.25 formulation (GR=granule).
The test substances which were pure active ingredient (e.g. propyrisulfuron & fenoxasulfone & compound A-16) (labelled as ‘Technical’ in the following results table), were prepared by dissolving in 10.56% Emulsogen EL™ (castor oil ethoxylate, CAS Registry number 61791-12-6), 42.22% N-methylpyrrolidone and 42.22% dipropylene glycol mono-ethyl ether to give a stock solution containing 5% of the test substance and 95% of (Emulsogen EL™, N-methylpyrrolidone and dipropylene glycol mono-ethyl ether).
Application of the test substances was made by pipetting the required amount of the test solution or the test formulation gently into the flood water of the appropriate pot.
The test plants were then grown on in the same glasshouse conditions, and watered twice daily keeping the flood water at a depth of 2-3 cm.
A visual assessment of the % herbicidal damage was made 7 & 14 days after application […], and the results are presented herein as % visual herbicidal damage where 0=no damage to plants and 100=total kill.

Assay [2] concerns Leptochloa chinensis (LEFCH). Briefly: Biological Example 1 (Test 125): visual herbicidal damage to flooded LEFCH. The note with it: 200 g/ha fenoxasulfone applied alone, 14 DAA. Type of assay: in vivo. On the procedure: as §1
Test solutions were prepared by mixing the appropriate aliquots of the test substances in deionised water to give the desired treatment concentration. Most of the test substances were used as formulated products. Specifically, compound A-13 was applied as the EC050 formulation disclosed in Formulation Example 1 herein (EC=emulsifiable concentrate). […]

`CCOc1cc(Cl)c(CS(=O)(=O)C2=NOC(C)(C)C2)cc1Cl` [fenoxasulfone, reference compound] registered an ECHCG control in assay [1] of 65%. Also, the LEFCH control in assay [2] is given as 70%.
